The results in this text go back to patent US9451771B2, “Compositions and methods to attract the brown marmorated stink bug (BMSB), Halyomorpha halys” (United States of America as Represented by the Secretary of …, priority 2012, dated 2016).

The test system of the test is brown marmorated stink bug (BMSB), Halyomorpha halys. The test is described as follows: Field trials of experimental pheromone constituents, baited black pyramid traps. It is filed as in vivo. Particulars: for field attractiveness to BMSB (in words): 2011-2012 field trapping. An excerpt: Field Bioassays. Field Trials of Experimental Pheromone Constituents: Pyramid traps based on dimensions previously used for native stink bugs (Leskey and Hogmire 2005, Hogmire and Leskey 2006) and for brown marmorated stink bugs (Leskey et al. 2012c) were used for all trials. […] Each panel was 1.22 m high, 52 cm wide at the base, and 7 cm wide at the top. Collection jars were constructed based on previously published dimensions (Hogmire and Leskey 2006) with internal cone opening of 1.6 cm with trimmed wire edging to reduce escape. In addition, a Hercon Vaportape™ II (Hercon Environmental, Emigsville, Pa.) was added as a killing agent to prevent escape from traps. In a preliminary study, addition of a killing agent increased trap captures ˜250%. Traps were deployed ˜5 meters from the border of apple and pear orchards at the Appalachian Fruit Research Station or in the border area between wood lots and row crops in Kearneysville, W. Va., Shepherdstown, W. Va., Keedysville, Md., and Beltsville, Md. Traps were spaced ˜50 meters apart. Traps were baited with compounds identified from headspace collections of male BMSB, synthesized and formulated into gray rubber septa or left unbaited.
Fourteen trials were conducted between 19 Apr. to 20 Oct. 2011 (Table 3) and four trials between 20 Mar. to 10 Oct. 2012 (Table 4). Traps were checked a minimum of twice weekly and the treatments were re-randomized at each collection.
All adults and nymphs were removed from traps and recorded. Hercon Vaportape™ strips were changed at four week intervals and lures were changed at two week intervals. Comparisons of adult and nymphal captures used the SAS GLM procedure to evaluate effect of treatment and replicate followed by Tukey's HSD if the model was significant. Appropriate transformations were used to stabilize normality if needed. The effect of sex was dropped from all models because it was never a significant factor.

Where [1] appears, read: AFRS 2011, Trial Eight, 11 August-6 Sept.
Setting [2] is: AFRS 2011, Trial One, 19 April-10 May.
[3] abbreviates: Beltsville 2011, Trial Eight, 11 August-6 Sept.
The mark [4] stands for this setting: Beltsville 2011, Trial One, 19 April-10 May.
The mark [5] stands for this setting: AFRS 2012, Trial Four, 22 September-10 October.
[6] abbreviates: AFRS 2012, Trial Two, 31 July-14 August.
Where [7] appears, read: Beltsville 2012, Trial Four, 17 September-2 October.
The mark [8] stands for this setting: Beltsville 2012, Trial Two, 1-14 August.
The mark [9] stands for this setting: AFRS 2012, Trial Three, 14 August-13 September.
The mark [10] stands for this setting: Beltsville 2012, Trial Three, 14 August-11 September.

For the compound `CC1=C[C@H](O)[C@@H]([C@@H](C)CC[C@@H]2OC2(C)C)CC1` [Lure #1, (3R,6R,7S,10S)-10,11-epoxy-1-bisabolen-3-ol], the “field attractiveness to BMSB (in words)” value is “inactive”. Under setting [1], the “Mean number BMSB adults (±SE) captured” value is 3.08 ± 0.55b per trap per sample and the “Mean number BMSB nymphs (±SE) captured” value is on record as 14.63 ± 6.06 per trap per sample. Further, under setting [2], the “Mean number BMSB adults (±SE) captured” value is reported as 0.03 ± 0.03 per trap per sample and the “Mean number BMSB nymphs (±SE) captured” value stood at 0.00 ± 0.00 per trap per sample. In addition, under setting [3], the “Mean number BMSB adults (±SE) captured” value came to 0.55 ± 0.13ab per treatment and the “Mean number BMSB nymphs (±SE) captured” value worked out at 3.49 ± 0.67 per treatment. Besides, under setting [4], the “Mean number BMSB adults (±SE) captured” value is recorded as 0.00 ± 0.20b per treatment and the “Mean number BMSB nymphs (±SE) captured” value is 0.00 ± 0.00 per treatment.
For the compound `C[C@H](CC[C@@H]1OC1(C)C)[C@H]1C=C[C@](C)(O)CC1` [Lure #18, (3R,6S,7R,10S)-10,11-epoxy-1-bisabolen-3-ol], the “field attractiveness to BMSB (in words)” value is on record as “moderately attractive”. Also, under setting [5], the “Mean number BMSB adults (±SE) captured” value amounted to 2.48 ± 0.70abc per treatment and the “Mean number BMSB nymphs (±SE) captured” value was determined as 0.60 ± 0.37 per treatment. Under setting [6], the “Mean number BMSB adults (±SE) captured” value worked out at 0.90 ± 0.38bc per treatment and the “Mean number BMSB nymphs (±SE) captured” value worked out at 6.50 ± 2.08ab per treatment. Moreover, under setting [7], the “Mean number BMSB adults (±SE) captured” value was found to be 4.15 ± 1.17a per treatment and the “Mean number BMSB nymphs (±SE) captured” value came out at 0.05 ± 0.05 per treatment. Moreover, under setting [8], the “Mean number BMSB adults (±SE) captured” value stood at 0.35 ± 0.13ab per treatment and the “Mean number BMSB nymphs (±SE) captured” value stood at 23.45 ± 9.95 per treatment.
With `C[C@H](CC[C@H]1OC1(C)C)[C@@H]1C=C[C@](C)(O)CC1` [Lure #23, (3R,6R,7R,10R)-10,11-epoxy-1-bisabolen-3-ol], the “field attractiveness to BMSB (in words)” value was “not attractive”. Besides, under setting [9], the “Mean number BMSB adults (±SE) captured” value is listed as 0.75 ± 0.29e per treatment and the “Mean number BMSB nymphs (±SE) captured” value stood at 2.50 ± 0.53c per treatment. Further, under setting [10], the “Mean number BMSB adults (±SE) captured” value stood at 0.90 ± 0.26b per treatment and the “Mean number BMSB nymphs (±SE) captured” value is recorded as 8.38 ± 2.90bc per treatment.
Consider `C[C@H](CC[C@@H]1OC1(C)C)[C@@H]1C=C[C@](C)(O)CC1` [Lure #17, (3R,6R,7R,10S)-10,11-epoxy-1-bisabolen-3-ol], for which, under setting [6], the “Mean number BMSB adults (±SE) captured” value was 0.40 ± 0.40bc per treatment and the “Mean number BMSB nymphs (±SE) captured” value came to 7.15 ± 2.65ab per treatment. For the same compound, under setting [8], the “Mean number BMSB adults (±SE) captured” value is 0.20 ± 0.12ab per treatment and the “Mean number BMSB nymphs (±SE) captured” value is listed as 20.30 ± 8.61 per treatment.
Take `C[C@H](CC[C@@H]1OC1(C)C)[C@H]1C=C[C@@](C)(O)CC1` [Lure #22, (3S,6S,7R,10S)-10,11-epoxy-1-bisabolen-3-ol]: the “field attractiveness to BMSB (in words)” value is reported as “more attractive than #23”. In addition, the “field attractiveness to BMSB (in words)” value (listed as stereoisomer 1) was “attracted BMSB females, males, and nymphs”. In addition, under setting [5], the “Mean number BMSB adults (±SE) captured” value is recorded as 1.36 ± 0.59bc per treatment and the “Mean number BMSB nymphs (±SE) captured” value is reported as 0.80 ± 0.57 per treatment. Under setting [9], the “Mean number BMSB adults (±SE) captured” value was 2.73 ± 0.50d per treatment and the “Mean number BMSB nymphs (±SE) captured” value came out at 7.30 ± 2.02bc per treatment. In addition, under setting [7], the “Mean number BMSB adults (±SE) captured” value was 5.05 ± 1.01a per treatment and the “Mean number BMSB nymphs (±SE) captured” value is on record as 0.15 ± 0.11 per treatment. Moreover, under setting [10], the “Mean number BMSB adults (±SE) captured” value is 2.65 ± 0.44a per treatment and the “Mean number BMSB nymphs (±SE) captured” value was 21.90 ± 6.49ab per treatment.
